Measurements from ChEMBL document CHEMBL1201862, “PubChem BioAssay data set” (2004).
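Step 1: Grow cells in 96-well plates. Step 2: Expose to compound for 48 hours at 5 concentrations. Step 3: Interpolate endpoints linearly; if unreached, use highest concentration. GI50: concentration for 50% inhibition of growth.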 The source made the active and inactive calls. No stated cut-off is given here; in the data, active = GI50 up to about 1.1 µM and inactive = higher.

Tests used:
Experiment in all cases: growth of human tumour cells (NCI), 48 h
CAKI-1 = system: CAKI-1
COLO 205 = system: COLO 205
EKVX = system: EKVX
HCC 2998 = system: HCC 2998
HCT-15 = system: HCT-15
HL-60 = system: HL-60
HOP-92 = system: HOP-92
K562 = system: K562
KM12 = system: KM12
MOLT-4 = system: MOLT-4
NCI-H226 = system: NCI-H226
NCI-H522 = system: NCI-H522
RPMI-8226 = system: RPMI-8226
SK-MEL-5 = system: SK-MEL-5
SK-OV-3 = system: SK-OV-3
TK-10 = system: TK-10
UACC-257 = system: UACC-257
DU-145 = system: DU-145
MDA-MB-435 = system: MDA-MB-435
T47D = system: T47D

Compound | GI50 (CAKI-1) | GI50 (COLO 205) | GI50 (EKVX) | GI50 (HCC 2998) | GI50 (HCT-15) [µM] | GI50 (HL-60) | GI50 (HOP-92) | GI50 (K562) | GI50 (KM12) | GI50 (MOLT-4) | GI50 (NCI-H226) | GI50 (NCI-H522) | GI50 (RPMI-8226) | GI50 (SK-MEL-5) | GI50 (SK-OV-3) | GI50 (TK-10) | GI50 (UACC-257) | GI50 (DU-145) | GI50 (MDA-MB-435) | GI50 (T47D)
N#Cc1ccc(C(C2C(=O)NC(=O)NC2=O)C2C(=O)NC(=O)NC2=O)cc1 | > 100 µM (inactive) | > 100 µM (inactive) | > 100 µM (inactive) | > 100 µM (inactive) | > 100 | > 100 µM (inactive) | > 100 µM (inactive) | 77.1 µM (inactive) | > 100 µM (inactive) | > 100 µM (inactive) | > 100 µM (inactive) | > 100 µM (inactive) | > 100 µM (inactive) | > 100 µM (inactive) | > 100 µM (inactive) | > 100 µM (inactive) | > 100 µM (inactive) |  |  | 
COC1OC(OC)C2C(c3c(C)cc(C)cc3C)=NOC12 (stereo not given) | > 100 µM (inactive) | > 100 µM (inactive) | > 100 µM (inactive) | > 100 µM (inactive) | > 100 | > 100 µM (inactive) | > 100 µM (inactive) | > 100 µM (inactive) | > 100 µM (inactive) | > 100 µM (inactive) | > 100 µM (inactive) | > 100 µM (inactive) | > 100 µM (inactive) | > 100 µM (inactive) | > 100 µM (inactive) | > 100 µM (inactive) | > 100 µM (inactive) |  |  | 
O=C(/C=C/c1ccc(-c2ccccc2)cc1)c1ccccc1 | 38.7 µM (inactive) | 22.3 µM (inactive) | 23.3 µM (inactive) | 18.2 µM (inactive) | 17.7 | 39.6 µM (inactive) | 16.6 µM (inactive) | 27.7 µM (inactive) | 17.9 µM (inactive) | 46.9 µM (inactive) | 22.1 µM (inactive) | 17.3 µM (inactive) | 19.5 µM (inactive) | 19.7 µM (inactive) | 23.7 µM (inactive) | 22.1 µM (inactive) | 32.4 µM (inactive) |  |  | 
CCC/C(=N/NC(=O)C(N)=O)C(CC)C(=O)CCC(=O)N(Cc1ccccc1)Cc1ccccc1 (stereo not given) | > 100 µM (inactive) | > 100 µM (inactive) | > 100 µM (inactive) | > 100 µM (inactive) | > 100 | > 100 µM (inactive) | > 100 µM (inactive) | > 100 µM (inactive) | > 100 µM (inactive) | > 100 µM (inactive) | > 100 µM (inactive) | > 100 µM (inactive) | > 100 µM (inactive) | > 100 µM (inactive) | > 100 µM (inactive) | > 100 µM (inactive) | > 100 µM (inactive) |  |  | 
CCOC(=O)N1CCN(c2ccc3ccc(N)nc3n2)CC1 | > 100 µM (inactive) | > 100 µM (inactive) | > 100 µM (inactive) | > 100 µM (inactive) | > 100 | > 100 µM (inactive) | > 100 µM (inactive) | > 100 µM (inactive) | > 100 µM (inactive) | 74.1 µM (inactive) | > 100 µM (inactive) | > 100 µM (inactive) | > 100 µM (inactive) |  | > 100 µM (inactive) | > 100 µM (inactive) | > 100 µM (inactive) | > 100 µM (inactive) | > 100 µM (inactive) | 
Cc1ccc(-c2c(C#N)c(-c3ccccc3)n(NS(=O)(=O)c3ccc(C)cc3)c(=O)c2C#N)cc1 | 71.1 µM (inactive) | > 100 µM (inactive) | 89.9 µM (inactive) | 47.4 µM (inactive) | 36.4 |  | 11.4 µM (inactive) | 48 µM (inactive) | 27.4 µM (inactive) | 19.8 µM (inactive) | 74.3 µM (inactive) | 39.2 µM (inactive) | 8.36 µM (inactive) | 19.2 µM (inactive) | 96.6 µM (inactive) | 55.3 µM (inactive) | > 100 µM (inactive) |  | 61.7 µM (inactive) | 
O=S(=O)(c1ccc(/N=N/O)nc1)c1ccc2ccccc2c1 | 88.5 µM (inactive) | 97.3 µM (inactive) | > 100 µM (inactive) |  | > 100 | 47.8 µM (inactive) |  | 75 µM (inactive) | > 100 µM (inactive) | > 10 µM (inactive) | > 100 µM (inactive) | > 100 µM (inactive) |  | 36.8 µM (inactive) | > 100 µM (inactive) | 94 µM (inactive) | > 100 µM (inactive) | > 100 µM (inactive) |  | 40 µM (inactive)
Cc1cccc(-c2cc(O)c3cccnc3n2)c1 |  | 0.236 µM (active) | 2.34 µM (inactive) | 1.98 µM (inactive) | 0.299 | 0.128 µM (active) | 88.3 µM (inactive) | 0.0993 µM (active) | 0.173 µM (active) | 0.902 µM (active) | 4.44 µM (inactive) | 0.553 µM (active) | 0.679 µM (active) | 0.467 µM (active) | 0.569 µM (active) |  |  | 3.94 µM (inactive) | 0.0298 µM (active) | 
